Data reported in PMC9743090, “Induction of Ferroptosis in Glioblastoma and Ovarian Cancers by a New Pyrrole Tubulin Assembly Inhibitor” (Journal of Medicinal Chemistry, 2022).

System: U-87 MG
Assay: In vivo U-87 MG xenograft, tumor size and tumor tissue analysis
Parameters: species or system BALB/C^nu/nu mice
Experimental: Briefly, all 10 week-old female BALB/C^nu/nu mice (24 mice) were purchased from the Shanghai University of Traditional Chinese Medicine with Institutional Animal Care and Use Committee approval in accordance with institutional guidelines. All mice were randomly divided into four groups. In #1 group (4 mice), 1 × 10^8 cells/mL from U-87 MG at the logarithmic growth phase were harvested and inoculated subcutaneously, followed by intraperitoneal injection of 100 μL of 15 (25 mg/kg) every 2 days. In #2 group (4 mice), 1 × 10^8 cells/mL from U-87 MG at the logarithmic growth phase were harvested and inoculated subcutaneously, followed by intraperitoneal injection of 100 μL of saline every 2 days. In #3 group (4 mice), 1 × 10^8 cells/mL from SKOV-3 at the logarithmic growth phase were harvested and inoculated subcutaneously, followed by intraperitoneal injection of 100 μL 15 (25 mg/kg) every 2 days. In #4 group (4 mice), 1 × 10^8 cells/mL from SKOV-3 at the logarithmic growth phase were harvested and inoculated subcutaneously, followed by intraperitoneal injection of 100 μL of saline every 2 days. After continuous feeding for 40 days, the mice were sacrificed, and the tumors were removed. The tumors were weighed, and the volumes were calculated using the following formula: Tumor volume (cm^3) = (ab^2)/2 (a: the longest axis (cm), b: the shortest axis (cm)).
Briefly, fresh tissues were immersed in 4% paraformaldehyde (Sigma-Aldrich) for fixation at room temperature for 30 min. The tissues were then dehydrated in an ethanol gradient, embedded in paraffin, sectioned (thickness: 6 μm), and immersed in xylene for dewaxing. Tissue sections were blocked with immunohistochemical blocking solution (Beyotime Biotechnology Co., Ltd., Zhejiang, China) at 37 °C for 30 min. The blocking solution was then discarded, and the sections were washed three times at room temperature for 5 min, each with immunohistochemical washing solution (Beyotime Biotechnology). Then, primary antibodies (rabbit anti-GPX4 antibody [EPNCIR144] (ab125066), rabbit anti-ferritin heavy chain antibody [EPR18878] (ab183781), and rabbit anti-Ki67 antibody (ab15580), Abcam, MA, USA) were added and incubated at 37 °C for 45 min. After incubation, the antibody solution was discarded, and the sections were washed three times at room temperature for 5 min each with immunohistochemical washing solution (Beyotime Biotechnology). Then, the secondary antibody (goat anti-rabbit IgG H&L (Alexa Fluor 488), Abcam, MA, USA) was added, and the tissues were incubated at 37 °C for 45 min. After incubation, the antibody solution was discarded, and the sections were washed three times at room temperature for 5 min, each with immunohistochemical washing solution (Beyotime Biotechnology). Finally, immunofluorescence blocking solution (Sigma-Aldrich) was added, and the sections were mounted.
According to the instructions of the RNAprep pure Tissue Kit (TIANGEN Biotech (Beijing) China) Co., Ltd., Beijing, China), to about 20 mg of […] tissue specimen was added 800 μL of lysis solution, and the mixture was ground, homogenized, and centrifuged. To the supernatant, 200 μL of chloroform was added, and the mixture was mixed by inverting and centrifuged at 4 °C at 13,400 × g for 15 min. To the supernatant, two volumes of absolute ethanol were added, mixed by inversion, and centrifuged at 4 °C at 13,400 × g for 30 min. Ethanol precipitation and centrifugation of the supernatant were repeated. The RNA pellet was suspended with 500 μL of 75% ethanol and centrifuged at 13,400 × g at 4 °C for 5 min. The supernatant was discarded, the excess liquid was removed, and the pellet was dissolved in 300 μL of DECP water. One microliter of the RNA solution was used to measure the ratio of A260–A280 (generally 1.8–2.0) to determine the purity and approximate concentration of the RNA. […]

COc1cc(C(=O)c2cn(-c3ncccn3)cc2-c2ccco2)cc(OC)c1OC [Compound 15, (4-(Furan-2-yl)-1-(pyrimidyl-2-yl)-1H-pyrrol-3-yl)(3,4,5-trimethoxyphenyl)methanone]
ATP level in tumor tissue vs control (25 mg/kg i.p. every 2 days): significantly lower
Fe2+ concentration in tumor tissue vs control (25 mg/kg i.p. every 2 days): significantly higher
LPO level in tumor tissue vs control (25 mg/kg i.p. every 2 days): appreciably higher
MDA level in tumor tissue vs control (25 mg/kg i.p. every 2 days): appreciably higher
T-GSH level in tumor tissue vs control (25 mg/kg i.p. every 2 days): significantly lower
lactic acid level in tumor tissue vs control (25 mg/kg i.p. every 2 days): appreciably higher
tumor size (volume and weight) vs saline control (25 mg/kg i.p. every 2 days, day 40): significantly smaller
CD31 expression in tumor tissue vs control (immunofluorescence staining): significantly lower expression
FTH1 expression in tumor tissue vs control (immunofluorescence staining): significantly lower expression
GPX4 expression in tumor tissue vs control (immunofluorescence staining): significantly lower expression
Ki67 expression in tumor tissue vs control (immunofluorescence staining): significantly lower expression
